Laboratory results from ChEMBL document CHEMBL2424622, “Development of amino-pyrimidine inhibitors of c-Jun N-terminal kinase (JNK): kinase profiling guided optimization of a 1,2,3-benzotriazole lead” (Bioorg Med Chem Lett, 2013).

Tests used:
[1] = target: Serine/threonine-protein kinase Nek7 (Homo sapiens, UniProt Q8TDX7); assay: Competitive binding affinity to NEK7 (unknown origin) at 10 uM in presence of ATP relative to control
[2] = target: T1, Myosin-IIIb (Homo sapiens) (UniProt Q8WXR4); assay: Competitive binding affinity to MYO3B (unknown origin) at 10 uM in presence of ATP relative to control
T1 sequence (whole entry): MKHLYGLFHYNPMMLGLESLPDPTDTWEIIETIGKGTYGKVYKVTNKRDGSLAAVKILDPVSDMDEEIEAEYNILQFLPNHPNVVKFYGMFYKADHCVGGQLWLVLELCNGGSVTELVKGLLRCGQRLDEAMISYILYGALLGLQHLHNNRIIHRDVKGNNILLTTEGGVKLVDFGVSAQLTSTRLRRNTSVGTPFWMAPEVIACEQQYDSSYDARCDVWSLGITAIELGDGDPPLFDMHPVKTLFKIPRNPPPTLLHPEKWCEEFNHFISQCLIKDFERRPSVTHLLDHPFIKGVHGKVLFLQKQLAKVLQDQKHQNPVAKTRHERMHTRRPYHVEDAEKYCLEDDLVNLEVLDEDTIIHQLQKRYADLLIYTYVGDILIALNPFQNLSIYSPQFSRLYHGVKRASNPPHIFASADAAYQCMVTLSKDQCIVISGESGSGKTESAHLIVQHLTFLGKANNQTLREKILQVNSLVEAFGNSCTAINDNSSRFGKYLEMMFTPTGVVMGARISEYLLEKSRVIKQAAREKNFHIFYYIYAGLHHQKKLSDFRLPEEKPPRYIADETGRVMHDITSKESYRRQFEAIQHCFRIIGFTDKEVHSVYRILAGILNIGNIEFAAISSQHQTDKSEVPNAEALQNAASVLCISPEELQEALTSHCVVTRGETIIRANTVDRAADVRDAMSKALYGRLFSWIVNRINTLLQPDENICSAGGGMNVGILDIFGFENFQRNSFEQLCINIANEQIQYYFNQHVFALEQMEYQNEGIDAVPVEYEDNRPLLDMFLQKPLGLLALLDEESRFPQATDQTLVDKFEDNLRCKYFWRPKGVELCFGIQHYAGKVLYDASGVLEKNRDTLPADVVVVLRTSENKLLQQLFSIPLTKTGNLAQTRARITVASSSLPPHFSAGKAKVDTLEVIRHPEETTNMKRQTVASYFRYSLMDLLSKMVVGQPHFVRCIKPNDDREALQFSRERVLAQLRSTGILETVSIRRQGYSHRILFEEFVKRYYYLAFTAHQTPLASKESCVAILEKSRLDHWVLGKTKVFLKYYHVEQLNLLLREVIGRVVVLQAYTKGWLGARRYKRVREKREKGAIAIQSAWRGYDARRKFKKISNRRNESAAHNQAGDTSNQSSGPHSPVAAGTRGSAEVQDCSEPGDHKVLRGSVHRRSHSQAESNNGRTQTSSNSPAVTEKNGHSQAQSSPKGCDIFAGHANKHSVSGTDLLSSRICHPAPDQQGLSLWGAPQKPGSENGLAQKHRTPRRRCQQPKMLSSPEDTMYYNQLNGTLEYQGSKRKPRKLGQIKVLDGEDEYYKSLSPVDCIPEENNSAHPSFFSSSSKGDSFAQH

[3] = target: T2, Phosphatidylinositol 5-phosphate 4-kinase type-2 beta (Homo sapiens) (UniProt P78356); assay: Competitive binding affinity to PIP5K2B (unknown origin) at 10 uM in presence of ATP relative to control
T2 sequence (whole entry): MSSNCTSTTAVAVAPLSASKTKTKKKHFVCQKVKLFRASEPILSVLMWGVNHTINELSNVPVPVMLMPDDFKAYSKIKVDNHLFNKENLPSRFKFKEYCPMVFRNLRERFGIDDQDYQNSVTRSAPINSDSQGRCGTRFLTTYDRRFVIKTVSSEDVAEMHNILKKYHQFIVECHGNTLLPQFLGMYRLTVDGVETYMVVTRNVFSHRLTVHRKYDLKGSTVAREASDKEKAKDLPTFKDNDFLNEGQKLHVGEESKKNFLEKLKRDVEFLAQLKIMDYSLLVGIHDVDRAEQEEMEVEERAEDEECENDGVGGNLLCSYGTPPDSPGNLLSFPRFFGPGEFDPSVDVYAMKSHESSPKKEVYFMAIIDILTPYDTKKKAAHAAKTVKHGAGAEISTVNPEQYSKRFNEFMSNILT

[4] = target: Insulin receptor-related protein (Homo sapiens) (UniProt P14616); assay: Competitive binding affinity to INSRR (unknown origin) at 10 uM in presence of ATP relative to control
[5] = target: T3, Activin receptor type-1B (Homo sapiens) (UniProt P36896); assay: Competitive binding affinity to ACVR1B (unknown origin) at 10 uM in presence of ATP relative to control
T3 sequence (whole entry): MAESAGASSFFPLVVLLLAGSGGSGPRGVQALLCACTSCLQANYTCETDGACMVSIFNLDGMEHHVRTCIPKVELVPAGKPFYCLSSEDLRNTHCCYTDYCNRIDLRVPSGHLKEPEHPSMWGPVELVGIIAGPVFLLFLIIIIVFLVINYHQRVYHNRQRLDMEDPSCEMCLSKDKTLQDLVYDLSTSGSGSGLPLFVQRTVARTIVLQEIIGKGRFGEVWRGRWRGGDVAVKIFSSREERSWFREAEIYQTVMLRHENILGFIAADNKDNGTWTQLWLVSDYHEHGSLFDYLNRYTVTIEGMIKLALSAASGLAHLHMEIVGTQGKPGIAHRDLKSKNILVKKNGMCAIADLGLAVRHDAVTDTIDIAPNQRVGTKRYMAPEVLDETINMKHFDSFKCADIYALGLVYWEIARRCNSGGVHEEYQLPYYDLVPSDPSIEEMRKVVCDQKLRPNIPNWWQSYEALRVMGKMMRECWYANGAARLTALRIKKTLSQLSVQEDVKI

[6] = target: T4, Serine/threonine-protein kinase 17A (Homo sapiens) (UniProt Q9UEE5); assay: Competitive binding affinity to STK17A (unknown origin) at 10 uM in presence of ATP relative to control
T4 sequence (whole entry): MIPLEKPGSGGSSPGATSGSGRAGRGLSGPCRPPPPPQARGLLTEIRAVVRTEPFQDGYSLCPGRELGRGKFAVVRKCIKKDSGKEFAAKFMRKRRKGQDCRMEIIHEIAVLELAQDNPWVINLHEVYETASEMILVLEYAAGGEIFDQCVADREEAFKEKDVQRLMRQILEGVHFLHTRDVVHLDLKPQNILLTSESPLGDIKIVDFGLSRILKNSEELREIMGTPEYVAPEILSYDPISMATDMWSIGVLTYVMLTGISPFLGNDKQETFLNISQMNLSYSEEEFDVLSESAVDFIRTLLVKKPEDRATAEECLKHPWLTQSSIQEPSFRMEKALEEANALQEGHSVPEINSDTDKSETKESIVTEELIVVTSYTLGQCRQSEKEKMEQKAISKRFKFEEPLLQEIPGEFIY

Serine/threonine-protein kinase Nek7, sequence (Q8TDX7 whole entry, looked up): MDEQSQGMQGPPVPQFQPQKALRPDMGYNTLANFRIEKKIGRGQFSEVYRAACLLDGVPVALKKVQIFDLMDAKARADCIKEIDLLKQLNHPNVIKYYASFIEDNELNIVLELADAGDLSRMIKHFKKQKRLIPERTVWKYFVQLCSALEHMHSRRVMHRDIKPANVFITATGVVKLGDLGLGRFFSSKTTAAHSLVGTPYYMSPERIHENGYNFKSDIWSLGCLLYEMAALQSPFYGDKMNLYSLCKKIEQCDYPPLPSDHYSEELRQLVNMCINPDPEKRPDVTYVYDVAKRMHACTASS
Insulin receptor-related protein (Homo sapiens), sequence (P14616 27-742 limits assumed): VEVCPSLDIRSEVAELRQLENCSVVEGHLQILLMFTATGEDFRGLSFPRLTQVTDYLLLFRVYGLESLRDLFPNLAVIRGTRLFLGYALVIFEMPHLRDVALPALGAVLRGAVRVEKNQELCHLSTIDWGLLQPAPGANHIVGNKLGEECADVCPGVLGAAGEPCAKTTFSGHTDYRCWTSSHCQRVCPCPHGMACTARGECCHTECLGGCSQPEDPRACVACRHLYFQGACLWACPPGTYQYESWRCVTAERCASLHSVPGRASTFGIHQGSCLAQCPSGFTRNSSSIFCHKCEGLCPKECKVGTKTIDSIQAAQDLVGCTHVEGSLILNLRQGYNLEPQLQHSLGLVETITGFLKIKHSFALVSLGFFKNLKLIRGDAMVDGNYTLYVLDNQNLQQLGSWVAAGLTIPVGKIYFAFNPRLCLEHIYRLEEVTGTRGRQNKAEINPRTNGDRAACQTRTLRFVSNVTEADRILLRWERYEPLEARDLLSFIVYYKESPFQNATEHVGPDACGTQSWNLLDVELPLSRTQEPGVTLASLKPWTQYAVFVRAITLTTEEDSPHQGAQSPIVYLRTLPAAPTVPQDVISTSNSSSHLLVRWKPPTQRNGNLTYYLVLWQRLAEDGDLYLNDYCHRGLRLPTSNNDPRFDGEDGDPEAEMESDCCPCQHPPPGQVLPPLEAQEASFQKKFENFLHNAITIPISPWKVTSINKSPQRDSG
Insulin receptor-related protein (Homo sapiens), sequence (P14616 747-1297 limits assumed): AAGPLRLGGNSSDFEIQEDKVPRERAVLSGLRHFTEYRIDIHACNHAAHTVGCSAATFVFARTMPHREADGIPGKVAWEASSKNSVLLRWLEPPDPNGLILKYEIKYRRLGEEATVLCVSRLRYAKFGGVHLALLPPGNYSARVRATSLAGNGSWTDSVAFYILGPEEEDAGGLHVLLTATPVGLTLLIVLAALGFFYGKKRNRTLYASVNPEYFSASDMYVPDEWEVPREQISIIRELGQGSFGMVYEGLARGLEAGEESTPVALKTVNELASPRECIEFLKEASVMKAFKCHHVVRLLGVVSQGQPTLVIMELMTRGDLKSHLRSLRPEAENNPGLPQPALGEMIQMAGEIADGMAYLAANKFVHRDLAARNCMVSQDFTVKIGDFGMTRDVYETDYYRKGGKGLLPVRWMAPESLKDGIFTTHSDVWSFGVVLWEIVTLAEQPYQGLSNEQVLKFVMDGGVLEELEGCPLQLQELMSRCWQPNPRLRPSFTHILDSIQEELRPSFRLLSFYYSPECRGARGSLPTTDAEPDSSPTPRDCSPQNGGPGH

Question: What does the source list for `O[C@H]1CC[C@H](Nc2nccc(-n3nnc4ccccc43)n2)CC1`?
Answer: inhibition [1]: 93%; inhibition [2]: < 50%; inhibition [3]: 74%; inhibition [4]: < 50%; inhibition [5]: < 50%

Question: `N[C@H]1CC[C@H](Nc2nccc(-n3nnc4ccccc43)n2)CC1` was tested. Which inhibition [6] did it give?
Answer: The inhibition was 100%.

Question: With `O=C([C@H]1CC[C@H](Nc2nccc(-n3nnc4ccccc43)n2)CC1)N1CCOCC1` as the compound, how does the inhibition [6] read?
Answer: The inhibition was 97%.

Question: `CS(=O)(=O)CCCOc1cccc2c1ccn2-c1ccnc(N[C@H]2CC[C@H](C(=O)N3CCC(O)CC3)CC2)n1` was tested. Which inhibition [1] did it give?
Answer: The inhibition was greater than 85%.

Question: Which inhibition [1] does the source give for `O[C@H]1CC[C@H](Nc2nccc(-n3ncc4ccccc43)n2)CC1` here?
Answer: Its inhibition is less than 50%.

Question: What about the inhibition [2] of the same compound?
Answer: The inhibition was less than 50%.

Question: And the inhibition [3]?
Answer: Its inhibition is 92%.

Question: What about the inhibition [4] of the same compound?
Answer: The inhibition was less than 50%.

Question: And the inhibition [5]?
Answer: The inhibition was less than 50%.

Question: Which inhibition [6] does the source give for `O[C@H]1CC[C@H](Nc2nccc(-c3n[nH]c4ccccc34)n2)CC1` here?
Answer: The inhibition was 100%.

Question: And the inhibition [4]?
Answer: The inhibition was 98%.

Question: And the inhibition [5]?
Answer: The inhibition was less than 50%.

Question: Which inhibition [1] does the source give for `O[C@H]1CC[C@H](Nc2nccc(-n3ccc4ccccc43)n2)CC1` here?
Answer: Its inhibition is less than 50%.

Question: What about the inhibition [2] of the same compound?
Answer: The inhibition was less than 50%.

Question: What about the inhibition [3] of the same compound?
Answer: Its inhibition is less than 50%.

Question: And the inhibition [4]?
Answer: The inhibition was less than 50%.

Question: What about the inhibition [5] of the same compound?
Answer: The inhibition was less than 50%.
